Results: US20260337153A1, “IONIZABLE AMINE LIPIDS” (Intellia Therapeutics, Inc., priority 2023, published 2026)
“And” between values parts separate entries of the source, which are not always exact repeats. Equal values may be shown once.

How the values were obtained:
[1] = LNP average particle size and polydispersity by dynamic light scattering; format: physicochemical; conditions: sgRNA:mRNA 1:2; for Number mean (average particle size) / PDI (polydispersity index) / Z-avg (average particle size): LNP with 50% ionizable lipid, 3% C13 Ether (LNP #1, Compound 53: 3% PEG2K-DMG instead)
Method: Dynamic Light Scattering (“DLS”) is used to characterize the polydispersity index (“pdi” or “PDI”) and size of the LNPs of the present disclosure. DLS measures the scattering of light that results from subjecting a sample to a light source. PDI, as determined from DLS measurements, represents the distribution of particle size (around the mean particle size) in a population, with a perfectly uniform population having a PDI of zero.
LNP compositions are analyzed for average particle size, polydispersity index (pdi), total RNA content, encapsulation efficiency of RNA, and zeta potential. LNP compositions may be further characterized by lipid analysis, AF4-MALS, NTA, and/or cryo-EM.
Average particle size and polydispersity are measured by dynamic light scattering (DLS) using a Malvern Zetasizer DLS instrument. LNP samples were diluted with PBS buffer prior to being measured by DLS. Z-average diameter (“Z-avg”) which is an intensity-based measurement of average particle size was reported along with number average diameter (“number mean”) and PDI. A Malvern Zetasizer instrument is also used to measure the zeta potential of the LNP. Samples are diluted 1:17 (50 μL into 800 μL) in 0.1×PBS, pH 7.4 prior to measurement.
(§1) In vivo editing efficiency for materials delivered with formulations including various amine lipid (or ionizable lipid) compounds in Experiments 1 through 14 as described in Tables 3 and 4 was assessed. Editing was measured using G000534 (SEQ ID NO: 5) which targets the rat TTR gene. Lipids described above were assessed for efficacy through in vivo editing experiments. LNPs were formulated at a 1:2 w/w ratio of sgRNA (SEQ ID NO: 5) and Cas9 mRNA (SEQ ID NO: 3). In Experiments 1 through 13, lipid components of the LNP are formulated in a molar ratio of 50% ionizable lipid, 38% cholesterol, 9% DSPC, and 3% PEG2K-DMG. In Experiment 14, lipid components of the LNP are formulated in a molar ratio of 50% ionizable lipid, 38% cholesterol, 9% DSPC, and 3% C13 Ether. The final LNPs used in different in vivo editing experiments were characterized to determine the encapsulation efficiency (% E), polydispersity index (PDI), and average particle size (Z-avg and number mean) according to the analytical methods provided above. The pKa values of each of the following ionizable lipids were also measured to be in the range of about 5.8 to about 7.6.
In vivo editing efficiency for materials delivered with formulations including various combinations of amine lipid (or ionizable lipid) and PEG lipid compounds was assessed as described in Tables 5 and 6. Editing was measured using G000534 (SEQ ID NO: 5) which targets the rat TTR gene. Lipids described above were assessed for efficacy through in vivo editing experiments. LNPs were formulated at a 1:2 w/w ratio of sgRNA (SEQ ID NO: 5) and Cas9 mRNA (SEQ ID NO:3). Lipid components of the LNP are formulated in a molar ratio of 50% ionizable lipid, 38% cholesterol, 9% DSPC, and 3% of various PEG lipids (e.g., PEG2K-DMG, C13 Ether, C14 Ether). The final LNPs used in different in vivo editing experiments were characterized to determine the encapsulation efficiency (% E), polydispersity index (PDI), and average particle size (Z-avg and number mean) according to the analytical methods provided above. The pKa values of each of the following ionizable lipids were also measured to be in the range of about 5.8 to about 7.6.
In vivo editing efficiency for materials delivered with formulations including various amine lipid (or ionizable lipid) compounds as described in Tables 7 and 8 was assessed. Editing was measured using G000534 (SEQ ID NO: 5) which targets the rat TTR gene. Lipids described above were assessed for efficacy through in vivo editing experiments. LNPs were formulated at a 1:2 w/w ratio of sgRNA (SEQ ID NO: 5) and Cas9 mRNA (SEQ ID NO: 3). Lipid components of the LNP were formulated in a molar ratio of 50% ionizable lipid, 38% cholesterol, 9% DSPC, and 3% C13 Ether. […]

rat TTR = assay: Serum TTR level after LNP delivery (Rat Prealbumin (Transthyretin) ELISA); format: in vivo, rat (Sprague-Dawley); conditions: Experiment 2, 0.1 mpk, LNP with PEG2K-DMG
Method: Sprague-Dawley female rats, ranging from 6-10 weeks of age were used in each study. Animals were weighed and dosed based on individual body weight measured the morning of dosing. LNPs were dosed via the lateral tail vein in a volume of 2 mL per kilogram of animal body weight. The animals were periodically observed for adverse effects for at least 24 hours post dose.
For studies measuring in vivo editing in liver, Sprague-Dawley female rats were dosed at 0.1 mpk or 0.03 mpk, unless otherwise noted. Animals were euthanized at 6 or 7 days by carbon dioxide asphyxiation and a heart clip or by ex sanguination via cardiac puncture under isoflourane anesthesia. Blood was collected into serum separator tubes. Liver tissue was collected. Genomic DNA was isolated from the liver tissue for editing measurement by Next-Generation Sequencing (NGS).
Blood was collected and the serum was isolated as indicated. The total rat TTR serum levels were determined using a Rat Prealbumin (Transthyretin) ELISA Kit (Aviva Systems Biology, Cat. #OKIA00159). Briefly, sera were serial diluted with kit sample diluent to a final dilution of 10,000-fold. This diluted sample was then added to the ELISA plates and the assay was then carried out according to manufacturer's protocol.
as §1
TSS was used as a vehicle-only negative control. The data are illustrated in FIGS. 1A through 14.

[2] = Table 3, Experiment 14, LNP with 3% C13 Ether
[3] = Table 3, Experiments 1-13, LNP 50% ionizable lipid, 38% cholesterol, 9% DSPC, 3% PEG2K-DMG

Row | SMILES | Number mean [1, 3] | PDI [1, 3] | Z-avg [1, 3] | Number mean (average particle size) ([1]; 38% cholesterol, 9% DSPC) [nm] | PDI (polydispersity index) ([1]; 38% cholesterol, 9% DSPC) | Z-avg (average particle size) ([1]; 38% cholesterol, 9% DSPC) [nm] | further results
1 | CCCCCCCCC(CCCCCCCC)OC(=O)CCCCCC(=O)OCC(CCCCCCCCC(=O)OCC(CCCC)CCCCCC)COC(=O)NCCN(CC)CC (stereo not shown) [Compound 51, 1-(11-((2-butyloctyl)oxy)-2-((((2-(diethylamino)ethyl)carbamoyl)oxy)methyl)-11-oxoundecyl) 7-(heptadecan-9-yl) heptanedioate] | 81 nm | 0.03 | 90 nm |  |  |  | 
2 | CCCCCCCCCOC(=O)CCCCCCCN(CCO)CCCCCCCC(=O)OC(CCCCCCCC)CCCCCCCC [Compound 55] | 65 nm | 0.05 | 77 nm |  |  |  | 
3 | CCCCCCCCC(CCCCCCCC)OC(=O)CCCCCCC(=O)OCC(COC(=O)CCCCCCC(=O)OC(CCCCCCCC)CCCCCCCC)COC(=O)NCCCN(CC)CC [Compound 61] | 39 nm | 0.16 | 74 nm |  |  |  | 
4 | CCCCCCCCC(CCCCCCCC)CC(=O)OCCC(=O)OCC(COC(=O)CCCC(=O)OC(CCCCCCCC)CCCCCCCC)COC(=O)NCCN(CC)CC (stereo not shown) [Compound 63, 3-(((2-(diethylamino)ethyl)carbamoyl)oxy)-2-(((3-((3-octylundecanoyl)oxy)propanoyl)oxy)methyl)propyl heptadecan-9-yl Glutarate] |  |  |  |  |  |  | Number mean ([1]; Table 7, LNP with 3% C13 Ether): 73 nm; PDI ([1]; Table 7, LNP with 3% C13 Ether): 0.02; Z-avg ([1]; Table 7, LNP with 3% C13 Ether): 80 nm
5 | CCCCCCCCC(CCCCCCCC)OC(=O)CCCCCCC(=O)OCC(CC)(COC(=O)CCCCCCC(=O)OC(CCCCCCCC)CCCCCCCC)COC(=O)NCCN(CC)CC [Compound 66, O′1,O1-(2-((((2-(diethylamino)ethyl)carbamoyl)oxy)methyl)-2-ethylpropane-1,3-diyl) 8,8′-di(heptadecan-9-yl) di(octanedioate)] |  |  |  | 64 | 0.01 | 78 | 
6 | CCCCCCCCC(CCCCCCCC)OC(=O)CCCCC(=O)OCC(COC(=O)CCCCC(=O)OC(CCCCCCCC)CCCCCCCC)COC(=O)NCCN(CC)CC [Compound 68, O,O′-(2-((((2-(diethylamino)ethyl)carbamoyl)oxy)methyl)propane-1,3-diyl) di(heptadecan-9-yl) diadipate] |  |  |  | 63 | 0.01 | 75 | 

The next lines start with results.

Row | Number mean [1, 3] | PDI [1, 3] | Z-avg [1, 3] | Number mean (average particle size) ([1]; 38% cholesterol, 9% DSPC) [nm] | PDI (polydispersity index) ([1]; 38% cholesterol, 9% DSPC) | Z-avg (average particle size) ([1]; 38% cholesterol, 9% DSPC) [nm] | SMILES | further results
7 | 65 nm and 72 nm | 0.01 | 79 nm and 76 nm |  |  |  | CCCCCCCCC(CCCCCCCC)OC(=O)CCCC(=O)OCC(COC(=O)CCCC(=O)OC(CCCCCCCC)CCCCCCCC)COC(=O)OCCCN(CC)CC [Compound 2, O,O′-(2-((((3-(diethylamino)propoxy)carbonyl)oxy)methyl)propane-1,3-diyl) di(heptadecan-9-yl) diglutarate] | Number mean [1, 2]: 74 nm; PDI [1, 2]: 0.017; Z-avg [1, 2]: 80 nm; % TSS (serum TTR relative to vehicle) (rat TTR): 17%; Serum TTR (rat TTR): 238.5 µg/mL
8 | 72 nm | 0.004 | 86 nm |  |  |  | CCCCCCCCC(CCCCCCCC)OC(=O)CCCCCC(=O)OCC(COC(=O)CCCCCC(=O)OC(CCCCCCCC)CCCCCCCC)COC(=O)OCCCN(CC)CC [Compound 3, O′1,O1-(2-((((3-(diethylamino)propoxy)carbonyl)oxy)methyl)propane-1,3-diyl) 7,7′-di(heptadecan-9-yl) di(heptanedioate)] | % TSS (serum TTR relative to vehicle) (rat TTR): 30%; Serum TTR (rat TTR): 414.5 µg/mL
9 | 79 nm | 0.03 | 87 nm | 74 | 0.02 | 88 | CCCCCCCCC(CCCCCCCC)OC(=O)CCCCCCC(=O)OCC(COC(=O)CCCCCCC(=O)OC(CCCCCCCC)CCCCCCCC)COC(=O)NCCN(CC)CC [Compound 52, O′1,O1-(2-((((2-(diethylamino)ethyl)carbamoyl)oxy)methyl)propane-1,3-diyl) 8,8′-di(heptadecan-9-yl) di(octanedioate)] | Number mean ([1]; Table 7, LNP with 3% C13 Ether): 79 nm; PDI ([1]; Table 7, LNP with 3% C13 Ether): 0.01; Z-avg ([1]; Table 7, LNP with 3% C13 Ether): 85 nm
10 | 78 nm | 0.02 | 87 nm |  |  |  | CCCCCCCCC(CCCCCCCC)OC(=O)CCCCCCC(=O)OCC(COC(=O)CCCCCCC(=O)OC(CCCCCCCC)CCCCCCCC)COC(=O)OCCCN(CC)CC [Compound 60] | Number mean ([1]; Table 5, PEG lipid C13 Ether): 80 nm; PDI ([1]; Table 5, PEG lipid C13 Ether): 0.03; Z-avg ([1]; Table 5, PEG lipid C13 Ether): 87 nm; Number mean ([1]; Table 5, PEG lipid C14 Ether): 83 nm; PDI ([1]; Table 5, PEG lipid C14 Ether): 0.03; Z-avg ([1]; Table 5, PEG lipid C14 Ether): 95 nm; Number mean ([1]; Table 5, PEG lipid PEG2K-DMG): 77 nm; PDI ([1]; Table 5, PEG lipid PEG2K-DMG): 0.03; Z-avg ([1]; Table 5, PEG lipid PEG2K-DMG): 89 nm
11 |  |  |  | 52 | 0.01 | 63 | CCCCCCCCC(CCCCCCCC)OC(=O)CCCCCC(=O)OCC(COC(=O)CCCCCC(=O)OC(CCCCCCCC)CCCCCCCC)COC(=O)OCCCN1CCCC1 [Compound 64, 7,7′-di(heptadecan-9-yl) O′1,O1-(2-((((3-(pyrrolidin-1-yl)propoxy)carbonyl)oxy)methyl)propane-1,3-diyl) di(heptanedioate)] | 
12 |  |  |  | 62 | 0.01 | 74 | CCCCCCCCC(CCCCCCCC)OC(=O)CCCCCCC(=O)OCC(COC(=O)CCCCCCC(=O)OC(CCCCCCCC)CCCCCCCC)COC(=O)OCCCN1CCCC1 [Compound 65, 8,8′-di(heptadecan-9-yl) O′1,O1-(2-((((3-(pyrrolidin-1-yl)propoxy)carbonyl)oxy)methyl)propane-1,3-diyl) di(octanedioate)] | 
13 |  |  |  | 53 | 0.03 | 65 | CCCCCCCCC(CCCCCCCC)OC(=O)CCCCCCC(=O)OCC(CC)(COC(=O)CCCCCCC(=O)OC(CCCCCCCC)CCCCCCCC)COC(=O)OCCCN1CCCC1 [Compound 67, O′1,O1-(2-ethyl-2-((((3-(pyrrolidin-1-yl)propoxy)carbonyl)oxy)methyl)propane-1,3-diyl) 8,8′-di(heptadecan-9-yl) di(octanedioate)] | 
